Measured values as given in paper PMC11571207, “Stereorandomized Oncocins with Preserved Ribosome Binding and Antibacterial Activity” (Journal of Medicinal Chemistry, 2024).
In brackets after ≈: the same amount, converted by molar mass. Non-standard residues stand in square brackets, D forms with d. Residues, ends and D or L forms follow the SMILES beside them.

Tests used:
A. baumannii ATCC19606 = assay: microbe, parasite or virus in culture; conditions: for MIC A. baumannii, 12.5% MHB / MIC A. baumannii, Full MHB: A. baumannii ATCC19606, 16–20 h at 37 °C; for MIC A. baumannii, 12.5% MHB: 12.5% Müller–Hinton medium; for MIC A. baumannii, Full MHB: full Müller–Hinton medium; for MIC A. baumannii ATCC19606: supplement CSV
Text: (§1) We tested antibacterial effects against the Gram-negative bacteria Escherichia coli, Klebsiella pneumoniae, Pseudomonas aeruginosa, and Acinetobacter baumannii and the Gram-positive methicillin-resistant Staphylococcus aureus (MRSA).
(§2) Bacterial growth assay (Figure S1), transmission electron microscopy (Figure S6), serum stability assay (Figure S7), circular dichroism spectral recording (Figures S8 and S9), antimicrobial and hemolysis activity assays (MIC and MHC), and vesicle leakage assay were carried out as described in earlier publications.[43],[44]
(§3) Minimum inhibitory concentration assay
(§4) Antimicrobial activity was assayed against P. aeruginosa PAO1, K. pneumoniae NCTC418, E. coli W3110, A. baumannii ATCC 19606, methicillin-resistant S. aureus COL (MRSA), and for selected peptides on P. aeruginosa PA14 and the polymyxin-B-resistant derivative PA14 2P4, as well as the clinical isolates ZEM-1A and ZEM9A, K. pneumoniae OXA-48, S. aureus Newman, Enterobacter cloacae and Burkholderia cenocepacia. The minimal inhibitory concentration (MIC) was determined by using broth microdilution method. A colo ny of bacteria was picked and grown in Luria-Bertani (LB) medium overnight at 37°C. For E. coli BW25113 sbmA::kan the medium was supplemented with 25 mg/L of kanamycin. The next day, the culture was then regrown in LB medium to log phase (OD600 = 0.6 to 0.8), which lasted approximately 4 h, and diluted to an OD600 of 0.022 in the desired medium. Stock solutions of 1 mg/mL of the samples were prepared in sterilized milliQ water and diluted to the beginning concentration of 64 μg/mL in 300 μL Mueller Hinton (MH)-medium. The diluted samples were added to first well of 96-well microtiter plate (TPP, untreated, Faust Laborbedarf, AG, Schaffhausen) and diluted serially by ½. Finally, 4 μL of the bacterial suspension was inoculated into the sample solutions (150 μL/well) with a final inoculation of about 5∙10^5 CFU/mL. The plates were then incubated at 37°C for 15-18h. For each assay, sterility (broth only) and growth control (broth with bacterial inoculum, without antibiotics) were checked with two columns in the plate. The next day, 15 μL of 3-(4,5-dimethylthiazol-2-yl)-2,5-diphenyltetrazolium bromide (MTT) was added to each well of the plate, such a way that MIC was defined as the lowest concentration of the peptide that inhibited visible growth of the tested

E. coli W3110 = assay: microbe, parasite or virus in culture; conditions: for MIC E. coli, 12.5% MHB / MIC E. coli, Full MHB: E. coli W3110, 16–20 h at 37 °C, broth microdilution; for MIC E. coli, 12.5% MHB: 12.5% Müller–Hinton medium; for MIC E. coli, Full MHB: full Müller–Hinton medium; for MIC E. coli W3110: supplement CSV
Text: as §1, §2, §3, §4

K. pneumoniae NCTC 418 = assay: microbe, parasite or virus in culture; conditions: for MIC K. pneumoniae, 12.5% MHB / MIC K. pneumoniae, Full MHB: K. pneumoniae NCTC 418, 16–20 h at 37 °C; for MIC K. pneumoniae, 12.5% MHB: 12.5% Müller–Hinton medium; for MIC K. pneumoniae, Full MHB: full Müller–Hinton medium; for MIC K. pneumoniae NCTC418: supplement CSV
Text: as §1, §2, §3, §4

P. aeruginosa PAO1 = assay: microbe, parasite or virus in culture; conditions: for MIC P. aeruginosa, 12.5% MHB / MIC P. aeruginosa, Full MHB: P. aeruginosa PAO1, 16–20 h at 37 °C; for MIC P. aeruginosa, 12.5% MHB: 12.5% Müller–Hinton medium; for MIC P. aeruginosa, Full MHB: full Müller–Hinton medium; for MIC P. aeruginosa PAO1: supplement CSV
Text: as §1, §2, §3, §4

S. aureus COL (MRSA) = assay: microbe, parasite or virus in culture; conditions: for MIC S. aureus, 12.5% MHB / MIC S. aureus, Full MHB: S. aureus COL (MRSA), 16–20 h at 37 °C; for MIC S. aureus, 12.5% MHB: 12.5% Müller–Hinton medium; for MIC S. aureus, Full MHB: full Müller–Hinton medium; for MIC S. aureus COL (MRSA): supplement CSV
Text: as §1, §2, §3, §4

human red blood cells = assay: Hemolysis assay, minimum hemolytic concentration; conditions: for Haemolysis on hRBC, MHC: 2.5% human red blood cells (final) in 10 mM phosphate, 150 mM NaCl, pH 7.4, 25 °C, 4 h, visual inspection; for MHC human red blood cells: supplement CSV

| Compound | MIC A. baumannii, 12.5% MHB (A. baumannii ATCC19606) [µg/mL] | MIC A. baumannii, Full MHB (A. baumannii ATCC19606) [µg/mL] | MIC A. baumannii ATCC19606 (A. baumannii ATCC19606; 12.5% MH pH 7.4) [µg/mL] | MIC A. baumannii ATCC19606 (A. baumannii ATCC19606; full MH pH 7.4) [µg/mL] | MIC E. coli, 12.5% MHB (E. coli W3110) [µg/mL] | MIC E. coli, Full MHB (E. coli W3110) [µg/mL] | MIC E. coli W3110 (E. coli W3110; 12.5% MH pH 7.4) [µg/mL] | MIC E. coli W3110 (E. coli W3110; full MH pH 7.4) [µg/mL] | MIC K. pneumoniae, 12.5% MHB (K. pneumoniae NCTC 418) [µg/mL] | MIC K. pneumoniae, Full MHB (K. pneumoniae NCTC 418) [µg/mL] | MIC K. pneumoniae NCTC418 (K. pneumoniae NCTC 418; 12.5% MH pH 7.4) [µg/mL] | MIC K. pneumoniae NCTC418 (K. pneumoniae NCTC 418; full MH pH 7.4) [µg/mL] | MIC P. aeruginosa, 12.5% MHB (P. aeruginosa PAO1) [µg/mL] | MIC P. aeruginosa, Full MHB (P. aeruginosa PAO1) [µg/mL] | MIC P. aeruginosa PAO1 (P. aeruginosa PAO1; 12.5% MH pH 7.4) [µg/mL] | MIC P. aeruginosa PAO1 (P. aeruginosa PAO1; full MH pH 7.4) [µg/mL] | MIC S. aureus, 12.5% MHB (S. aureus COL (MRSA)) | MIC S. aureus, Full MHB (S. aureus COL (MRSA)) | MIC S. aureus COL (MRSA) (S. aureus COL (MRSA); 12.5% MH pH 7.4) [µg/mL] | MIC S. aureus COL (MRSA) (S. aureus COL (MRSA); full MH pH 7.4) [µg/mL] | other results |
| --- | --- | --- | --- | --- | --- | --- | --- | --- | --- | --- | --- | --- | --- | --- | --- | --- | --- | --- | --- | --- | --- |
| CC[C@H](C)[C@H](NC(=O)[C@H](CCCNC(=N)N)NC(=O)[C@H](CCCNC(=N)N)NC(=O)[C@@H]1CCCN1C(=O)[C@@H]1CCCN1C(=O)[C@H](CCCNC(=N)N)NC(=O)[C@@H]1CCCN1C(=O)[C@H](CCCNC(=N)N)NC(=O)[C@H]1CCCN1C(=O)[C@H](CC(C)C)NC(=O)[C@H](Cc1ccc(O)cc1)NC(=O)[C@@H]1CCCN1C(=O)[C@@H]1CCCN1C(=O)[C@H](CCCCN)NC(=O)[C@H](CC(=O)O)NC(=O)[C@@H](N)C(C)C)C(=O)N[C@@H](Cc1ccc(O)cc1)C(=O)N[C@@H](CC(N)=O)C(=O)N[C@@H](CCCNC(=N)N)C(N)=O [DP8-Onc] (H-VDKPPYL[dP]RPRPPRRIYNR-NH2) | 16 (≈ 6.69 µM) | > 64 | 16 (≈ 6.69 µM) | >64 | 4 (≈ 1.67 µM) | 32 (≈ 13.4 µM) | 4 (≈ 1.67 µM) | 32 (≈ 13.4 µM) | 16 (≈ 6.69 µM) | > 64 | 16 (≈ 6.69 µM) | >64 | 16 (≈ 6.69 µM) | > 64 | 16 (≈ 6.69 µM) | >64 | >64 / 64 μg/mL | >64 / 64 μg/mL | 64 (≈ 26.8 µM) | >64 | Haemolysis on hRBC, MHC (human red blood cells): >1000 µg/mL; MHC human red blood cells (human red blood cells): >1000 µg/mL |
| CC[C@H](C)[C@H](NC(=O)[C@H](CCCNC(=N)N)NC(=O)[C@H](CCCNC(=N)N)NC(=O)[C@@H]1CCCN1C(=O)[C@@H]1CCCN1C(=O)[C@H](CCCNC(=N)N)NC(=O)[C@H]1CCCN1C(=O)[C@H](CCCNC(=N)N)NC(=O)[C@@H]1CCCN1C(=O)[C@H](CC(C)C)NC(=O)[C@H](Cc1ccc(O)cc1)NC(=O)[C@@H]1CCCN1C(=O)[C@@H]1CCCN1C(=O)[C@H](CCCCN)NC(=O)[C@H](CC(=O)O)NC(=O)[C@@H](N)C(C)C)C(=O)N[C@@H](Cc1ccc(O)cc1)C(=O)N[C@@H](CC(N)=O)C(=O)N[C@@H](CCCNC(=N)N)C(N)=O [DP10-Onc] (H-VDKPPYLPR[dP]RPPRRIYNR-NH2) | 8 (≈ 3.35 µM) | 64 (≈ 26.8 µM) | 8 (≈ 3.35 µM) | 64 (≈ 26.8 µM) | 4 (≈ 1.67 µM) | 16 (≈ 6.69 µM) | 4 (≈ 1.67 µM) | 16 (≈ 6.69 µM) | 4 (≈ 1.67 µM) | 32 (≈ 13.4 µM) | 4 (≈ 1.67 µM) | 32 (≈ 13.4 µM) | 16 (≈ 6.69 µM) | > 64 | 16 (≈ 6.69 µM) | >64 | >64 / >64 μg/mL | >64 / >64 μg/mL | >64 | >64 | Haemolysis on hRBC, MHC (human red blood cells): >1000 µg/mL; MHC human red blood cells (human red blood cells): >1000 µg/mL |
